In patent US20020086027A1, “Composition and method for enhancing immunological memory response” (priority 1998, published 2002):
“Also recorded” adds a separate entry of the source.

Experiments:
[1] = test system: allo-specific precursor T cells; experiment: Limiting dilution analysis of clonal responder frequency and burst size; assay type: cell-based, human
Source text: Limiting dilution analyses were used to calculate the number of transplantation antigen-specific memory T cells in cultures primed in the presence or absence of POX. Multiple replicate wells of titrated numbers of primed responders were restimulated. the numbers of wells showing proliferative responses at each responder dose were used to calculate the frequency of responding memory t cells in the primed populations. estimates of the extent of proliferation in wells effectively containing single responder cells served as a measure of clonal burst size. […] To determine the frequence of all-specific precursor cells in the various responder populations, titrating numbers (from 10,000 to 200 per well) of variously primed cells were added to a constant number (1×10^5 per well) of g-irradiated stimulator PBMCs. Of the 48 wells plated per responder dose, those wells showing a response at least twice that of the background value were scored positive. The responder frequency was calculated by taking the number of negative wells into account. The response was considered clonal at the responder cell number where the proportion of positively responding wells was less than 37%. At responder cell concentrations showing clonal frequencies, the average cpm values of responding (versus non-responding) wells were used as an estimate of the average clonal burst size of single responding T cells.

[2] = test system: antigen-specific T cell memory; experiment: Mice immunized with ovalbumin without adjuvant, splenic T cell recall proliferation; assay type: in vivo; conditions: POX 1 mg per mouse per day, day -1 to day 5
Experimental: Splenic cells were stimulated in vitro either on day 7 or on day 60 after immunization with titrated doses of ovalbumin for 4 days and pulsed with 3H-thymidine for 16 h before being harvested for scintillation spectrometry In the second system used to validate the memory-enhancing effects of POX, we have used immunization with a very poor immunogen, egg albumin without adjuvant.

[3] = test system: mercuric chloride-induced arthritis; conditions: rats; cited from earlier work
human T cells [4] = experiment: Secondary (recall) alloproliferative response of T cells primed in vitro; assay type: cell-based; conditions: for memory/recall proliferative response: primed with allo-PBMCs in presence of 100 ug/ml drug, restimulated without drug
Experimental: In this system, we have used responses to first exposure as an indication of primary responses. When cells stimulated in this fashion are rested in culture and then restimulated with the same stimulator PBMCs, the 'recall' response measured are taken as an indication of immune memory. Proliferation is measured by the incorporation of radioactive tritiated thymidine in dividing cells. For priming, responder and stimulator cells mixed in 2-5 ml cultures in a ratio of 1:1-3:1. After five days of incubation, the cells were harvested, counted and viable cells used as primed responders with g-irradiated allostimulators in secondary alloproliferation assays, which were pulsed with (H^3)-thymidine after four days for estimating cell proliferation. For flow cytometric analysis, cells were separated from debris by Ficoll-Paque gradient centrifugation before staining. […] Sigma Chemical Co.) at room temperature for 20 minutes, washed extensively and used. For priming in vitro, responder PBMCs were incubated for 72 or 144 h at a ratio of either 1:1 or 2:1 respectively, with stimulator PBMCs. Where appropriate, CsA. Aph. and/or […] were added at the concentrations indicated, of PFA-fixed PBMCs were used instead.

human T cells [5] = experiment: Cytokines in culture (IL-2 in supernatants, IFN-γ during recall); assay type: cell-based
Source text: Such possibilities make it plausible that signal-transduction pathways can be identified that differentially affect the commitment of responding T cells to the effector vs the memory pathways. […] It was of interest to look at the role of IL-2 in these events. […] Yet, the recall responses of cells primed under cover of […] are far higher than those of cells primed without […]). In fact, if […] is used in a situation in which T cell proliferation is abrogated by Aph it still enhances the response capability of primed T cells (FIG. 9). […] The enhancement in the magnitude of the secondary response caused by the presence of […] during priming is not simply the result of altered kinetics or response either (FIG. 11), but an actual increase. Clearly […] affects T cell priming such that commitment to memory is enhanced at the cost of effector responses, independent of its on T cell proliferation. […] (data not shown).

For CC(=O)CCCCn1c(=O)c2c(ncn2C)n(C)c1=O [POX, pentoxifylline], the “frequency of alloreactive responder (memory) T cells” value ([1]; drug present during priming (POX 100 ug/ml)) was “enhanced; also recorded: significantly enhances”, the “clonal burst size (average clonal proliferative response)” value ([1]; drug-treated vs untreated during priming) was “without altering; also recorded: not significantly different” and the “T cell memory recalled” value ([2]; day 7 post-immunization) was “higher”. For the same compound, the “T cell memory recalled” value ([2]; day 60 post-immunization) was “dramatically high”, the protection against arthritis [3] was “significant protection” and the “subsequent alloproliferative response of unprimed cells incubated with drug alone” value (human T cells [4]; 100 μg/ml, no stimulators during incubation) was “does not enhance”. The “enhancing effect on the recall response” value (human T cells [4]; lower doses of Trental during priming) was “decreases”, the “secondary response to unfixed PBMCs” value (human T cells [4]; primed with PF-fixed PBMCs in presence of POX 100 ug/ml) was “enhanced” and the recall response (human T cells [4]; primed with Trental plus Aph vs Aph alone) was “still higher”. The memory/recall proliferative response (human T cells [4]) was “much improved”, the memory/recall proliferative response (human T cells [4]; listed as Trental) was “enhanced” and the “IL-2 in culture supernatants” value (human T cells [5]; Trental 100 μg/ml treated cultures) was “do not find detectable levels”. The “levels of IFN-γ produced during recall” value (human T cells [5]; primed in presence vs absence of Trental) was “not different”.
